Key:
[1] = system: HORMU; experiment: Pre-emergence action against HORMU; assay type: in vivo, Hordeum murinum; settings: Dosage 320 g/ha
Summary of the method: (§1)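 Seeds sown in sandy loam in wood-fiber pots and covered with soil. Greenhouse growth; visual damage scored after 3 weeks versus untreated controls (100% = dead, 0% = like control).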

[2] = system: VERPE; experiment: Pre-emergence action against VERPE; assay type: in vivo, Veronica persica; settings: Dosage 320 g/ha, pre-emergence
Summary of the method: as §1

[3] = system: VIOTR; experiment: Pre-emergence action against VIOTR; assay type: in vivo, Viola tricolor; settings: Dosage 320 g/ha, pre-emergence
Summary of the method: as §1

[4] = system: LOLRI; experiment: Post-emergence action against LOLRI; assay type: in vivo, Lolium rigidum; settings: dosage 80 g/ha, visual assessment about 3 weeks after treatment vs untreated controls
Protocol: (§2) Seeds of monocotyledonous and dicotyledonous weed and crop plants are laid out in sandy loam soil in wood-fiber pots, covered with soil and cultivated in a greenhouse under good growth conditions. 2 to 3 weeks after sowing, the test plants are treated at the one-leaf stage. The compounds of the invention, formulated in the form of wettable powders (WP) or as emulsion concentrates (EC), are then sprayed onto the green parts of the plants in the form of an aqueous suspension or emulsion at a water application rate equating to […], with addition of 0.2% wetting agent. After the test plants have been left to stand in the greenhouse under optimal growth conditions for about 3 weeks, the action of the preparations is assessed visually in comparison to untreated controls (herbicidal action in percent (%): 100% activity=the plants have died, 0% activity=like control plants). […] At the same time, inventive compounds leave Gramineae crops such as barley, wheat, rye, millet/Sorghum, corn or rice virtually undamaged when applied post-emergence, even at high active ingredient dosages. In addition, some substances are also harmless to dicotyledonous crops such as soya, cotton, oilseed rape, sugar beet or potatoes. Some of the compounds according to the invention have high selectivity and are therefore suitable for controlling unwanted vegetation in agricultural crops by the post-emergence method. The data of Tables B18 to B34 below illustrate, in an exemplary manner, the […] herbicidal action of the compounds according to the invention, the herbicidal activity being stated in percent.

[5] = system: ECHCG; experiment: Pre-emergence action against ECHCG; assay type: in vivo, Echinochloa crus-galli; settings: pre-emergence, dosage 320 g/ha, scored visually after 3 weeks vs untreated controls
Summary of the method: as §1

[6] = system: STEME; experiment: Pre-emergence action against STEME; assay type: in vivo, Stellaria media; settings: Dosage 320 g/ha, pre-emergence
Summary of the method: as §1

[7] = system: AVEFA; experiment: Pre-emergence action against AVEFA; assay type: in vivo, Avena fatua; settings: dosage 320 g/ha, scored visually after 3 weeks vs untreated controls
Summary of the method: as §1

[8] = system: AMARE; experiment: Post-emergence action against AMARE; assay type: in vivo, Amaranthus retroflexus; settings: post-emergence, dosage 80 g/ha, visual assessment about 3 weeks after treatment vs untreated controls
Summary of the method: (§3)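 Post-emergence foliar spray on greenhouse plants at the one-leaf stage, using wettable-powder or emulsion-concentrate formulations in water (600 to […], plus 0.2% wetting agent). Damage scored by eye roughly 3 weeks later against untreated plants: 0% = like control, 100% = dead.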

[9] = system: PHBPU; experiment: Pre-emergence action against PHBPU; assay type: in vivo, Pharbitis purpurea; settings: Dosage 320 g/ha, pre-emergence
Summary of the method: as §1

[10] = system: PHBPU; experiment: Post-emergence action against PHBPU; assay type: in vivo, Pharbitis purpurea; settings: post-emergence, dosage 80 g/ha
Summary of the method: as §3

[11] = system: AVEFA; experiment: Post-emergence action against AVEFA; assay type: in vivo, Avena fatua; settings: post-emergence, dosage 80 g/ha, visual assessment about 3 weeks after treatment vs untreated controls
Summary of the method: as §3

[12] = system: ABUTH; experiment: Pre-emergence action against ABUTH; assay type: in vivo, Abutilon theophrasti; settings: pre-emergence, dosage 320 g/ha, scored visually after 3 weeks vs untreated controls
Summary of the method: as §1

[13] = system: ABUTH; experiment: Post-emergence action against ABUTH; assay type: in vivo, Abutilon theophrasti; settings: post-emergence, dosage 80 g/ha, visual assessment about 3 weeks after treatment vs untreated controls
Summary of the method: as §3

[14] = system: HORMU; experiment: Post-emergence action against HORMU; assay type: in vivo, Hordeum murinum; settings: dosage 80 g/ha
Protocol: as §2

[15] = system: AMARE; experiment: Pre-emergence action against AMARE; assay type: in vivo, Amaranthus retroflexus; settings: pre-emergence, dosage 320 g/ha, scored visually after 3 weeks vs untreated controls
Summary of the method: as §1

[16] = system: MATIN; experiment: Post-emergence action against MATIN; assay type: in vivo, Matricaria inodora; settings: post-emergence, dosage 80 g/ha, visual assessment about 3 weeks after treatment vs untreated controls
Summary of the method: as §3

[17] = system: ECHCG; experiment: Post-emergence action against ECHCG; assay type: in vivo, Echinochloa crus-galli; settings: post-emergence, dosage 80 g/ha, visual assessment about 3 weeks after treatment vs untreated controls
Summary of the method: as §3

[18] = system: SETVI; experiment: Pre-emergence action against SETVI; assay type: in vivo, Setaria viridis; settings: pre-emergence, dosage 320 g/ha, scored visually after 3 weeks vs untreated controls
Summary of the method: as §1

[19] = system: MATIN; experiment: Pre-emergence action against MATIN; assay type: in vivo, Matricaria inodora; settings: Dosage 320 g/ha, pre-emergence
Summary of the method: as §1

[20] = system: LOLRI; experiment: Pre-emergence action against LOLRI; assay type: in vivo, Lolium rigidum; settings: dosage 320 g/ha, scored visually after 3 weeks vs untreated controls
Summary of the method: as §1

[21] = system: CYPES; experiment: Pre-emergence action against CYPES; assay type: in vivo, Cyperus esculentus; settings: pre-emergence, dosage 320 g/ha, scored visually after 3 weeks vs untreated controls
Summary of the method: as §1

[22] = system: VIOTR; experiment: Post-emergence action against VIOTR; assay type: in vivo, Viola tricolor; settings: post-emergence, dosage 80 g/ha
Summary of the method: as §3

[23] = system: VERPE; experiment: Post-emergence action against VERPE; assay type: in vivo, Veronica persica; settings: dosage 80 g/ha
Summary of the method: as §3

[24] = system: ALOMY; experiment: Post-emergence action against ALOMY; assay type: in vivo, Alopecurus myosuroides; settings: Dosage 80 g/ha, post-emergence
Summary of the method: as §3

[25] = system: STEME; experiment: Post-emergence action against STEME; assay type: in vivo, Stellaria media; settings: post-emergence, dosage 80 g/ha
Summary of the method: as §3

[26] = system: POLCO; experiment: Post-emergence action against POLCO; assay type: in vivo, Polygonum convolvulus; settings: post-emergence, dosage 80 g/ha
Summary of the method: as §3

[27] = system: SETVI; experiment: Post-emergence action against SETVI; assay type: in vivo, Setaria viridis; settings: post-emergence, dosage 80 g/ha, visual assessment about 3 weeks after treatment vs untreated controls
Summary of the method: as §3

[28] = system: CYPES; experiment: Post-emergence action against CYPES; assay type: in vivo, Cyperus esculentus; settings: post-emergence, dosage 80 g/ha, visual assessment about 3 weeks after treatment vs untreated controls
Summary of the method: as §3

[29] = system: ALOMY; experiment: Pre-emergence action against ALOMY; assay type: in vivo, Alopecurus myosuroides; settings: dosage 320 g/ha; pre-emergence; scored visually after 3 weeks vs untreated controls; 100% = plants have died, 0% = like control plants
Summary of the method: as §1

[30] = system: POLCO; experiment: Pre-emergence action against POLCO; assay type: in vivo, Polygonum convolvulus; settings: Dosage 320 g/ha, pre-emergence
Summary of the method: as §1

Row | Compound | Pre-emergence action against HORMU [1] [%] | Pre-emergence action against VERPE [2] [%] | Pre-emergence action against VIOTR [3] [%] | Post-emergence action against LOLRI (herbicidal action in percent) [4] [%] | Pre-emergence action against ECHCG (herbicidal activity) [5] [%] | Pre-emergence action against STEME [6] [%] | Pre-emergence action against AVEFA (herbicidal activity) [7] [%] | Post-emergence action against AMARE (herbicidal action in percent) [8] [%] | Pre-emergence action against PHBPU [9] [%] | Post-emergence action against PHBPU [10] | Pre-emergence action against ABUTH (herbicidal activity) [12] [%] | Post-emergence action against ABUTH (herbicidal action in percent) [13] [%] | Post-emergence action against HORMU [14] | Pre-emergence action against AMARE (herbicidal activity) [15] [%] | Post-emergence action against MATIN (herbicidal action in percent) [16] [%] | Post-emergence action against ECHCG (herbicidal action in percent) [17] [%] | SETVI (Table B8, pre-emergence herbicidal activity) [18] [%] | Pre-emergence action against MATIN [19] [%] | Pre-emergence action against LOLRI (herbicidal activity) [20] [%] | Pre-emergence action against CYPES (herbicidal activity) [21] [%] | also measured
1 | CCn1nnnc1NC(=O)c1ccc(C(F)(F)F)c(C(=O)C2CC2)c1SC [2-60] | 100 | 100 | 100 | 90 | 100 | 100 | 100 | 100 | 100 | 100 | 100 | 100 | 100 | 100 | 90 | 100 | 100 | 100 | 100 | 100 | Post-emergence action against AVEFA (herbicidal action in percent) [11]: 80%; Post-emergence action against VIOTR [22]: 100; Post-emergence action against VERPE [23]: 100; Post-emergence action against ALOMY [24]: 100%; Post-emergence action against STEME [25]: 100; Post-emergence action against POLCO [26]: 90; Post-emergence action against SETVI (herbicidal action in percent) [27]: 100%; Post-emergence action against CYPES (herbicidal action in percent) [28]: 90%; Pre-emergence action against ALOMY (herbicidal activity in percent) [29]: 100%; Pre-emergence action against POLCO [30]: 100%
2 | CCCn1nnnc1NC(=O)c1ccc(C(F)F)c(C(=O)C2CC2)c1SC [3-67] | 100 | 100 | 100 | 80 | 100 | 90 | 100 | 100 | 100 | 100 | 100 | 100 | 80 | 100 | 100 | 100 | 100 | 100 | 100 | 100 | Post-emergence action against VIOTR [22]: 100; Post-emergence action against VERPE [23]: 80; Post-emergence action against STEME [25]: 100; Post-emergence action against POLCO [26]: 80; Post-emergence action against SETVI (herbicidal action in percent) [27]: 100%; Post-emergence action against CYPES (herbicidal action in percent) [28]: 80%; Pre-emergence action against ALOMY (herbicidal activity in percent) [29]: 100%; Pre-emergence action against POLCO [30]: 90%
